Values of other authors in PubChem BioAssay AID1259409 (Chemical Carcinogenesis Research Information System (CCRIS), 2018).

System: rodent chemically induced tumor inhibition, incidence and multiplicity
Experiment: CCRIS tumor inhibitor studies
Conditions: Route [Inhibitor]: ORAL, Species: RAT

In the case of `Cn1c(=O)c2c(ncn2C)n(C)c1=O`, the “tumour outcome (control, treated, inhibition, significance)” value (Carcinogen: 1,2-DIMETHYLHYDRAZINE, 540-73-8, Dose [Inhibitor]: 0, 600 MG/L IN DRINKING WATER FOR DURATION OF STUDY BEGINNING 7 D PRIOR TO CARCINOGEN TREATMENT (STUDY DURATION: 8 MO), Strain/Sex: BD6/MALE, Target Tissue: Type of Lesion: INTESTINE: TUMOR, Dose [Carcinogen]: 20 MG/KG BW 1/WK FOR 20 WK, Promoter: NONE USED) is given as 100%, 100%, 0%, not significant, the “tumour outcome (control, treated, inhibition, significance)” value (Carcinogen: 2-ACETYLAMINOFLUORENE, 53-96-3, Dose [Inhibitor]: 0, 0.1% IN DRINKING WATER FOR FIRST 12 WK (STUDY DURATION: 30 WK), Strain/Sex: ACI/MALE, Target Tissue: Type of Lesion: LIVER: HEPATOCELLULAR ADENOMA, Dose [Carcinogen]: 0.02% IN DIET FOR FIRST 12 WK) is given as 100%, 78%, 22%, not significant and the “tumour outcome (control, treated, inhibition, significance)” value (Carcinogen: 2-ACETYLAMINOFLUORENE, 53-96-3, Dose [Inhibitor]: 0, 0.1% IN DRINKING WATER FOR FIRST 12 WK (STUDY DURATION: 30 WK), Strain/Sex: ACI/MALE, Target Tissue: Type of Lesion: LIVER: HEPATOCELLULAR CARCINOMA, Dose [Carcinogen]: 0.02% IN DIET FOR FIRST 12 WK) is given as 44%, 22%, 50%, not significant. For the same molecule, the “tumour outcome (control, treated, inhibition, significance)” value (Carcinogen: 2-ACETYLAMINOFLUORENE, 53-96-3, Dose [Inhibitor]: 0, 0.1% IN DRINKING WATER FOR FIRST 12 WK (STUDY DURATION: 30 WK), Strain/Sex: ACI/MALE, Target Tissue: Type of Lesion: SMALL INTESTINE: ADENOCARCINOMA, Dose [Carcinogen]: 0.02% IN DIET FOR FIRST 12 WK) was 9%, 17%, -89%, not significant, the “tumour outcome (control, treated, inhibition, significance)” value (Carcinogen: 2-ACETYLAMINOFLUORENE, 53-96-3, Dose [Inhibitor]: 0, 0.15% IN DRINKING WATER FOR FIRST 12 WK (STUDY DURATION: 30 WK), Strain/Sex: ACI/MALE, Target Tissue: Type of Lesion: LIVER: HEPATOCELLULAR ADENOMA, Dose [Carcinogen]: 0.02% IN DIET FOR FIRST 12 WK) was 100%, 63%, 37%, p<0.01 and the “tumour outcome (control, treated, inhibition, significance)” value (Carcinogen: 2-ACETYLAMINOFLUORENE, 53-96-3, Dose [Inhibitor]: 0, 0.15% IN DRINKING WATER FOR FIRST 12 WK (STUDY DURATION: 30 WK), Strain/Sex: ACI/MALE, Target Tissue: Type of Lesion: LIVER: HEPATOCELLULAR CARCINOMA, Dose [Carcinogen]: 0.02% IN DIET FOR FIRST 12 WK) was 44%, 8%, 82%, p<0.02. For the same molecule, the “tumour outcome (control, treated, inhibition, significance)” value (Carcinogen: 2-ACETYLAMINOFLUORENE, 53-96-3, Dose [Inhibitor]: 0, 0.15% IN DRINKING WATER FOR FIRST 12 WK (STUDY DURATION: 30 WK), Strain/Sex: ACI/MALE, Target Tissue: Type of Lesion: SMALL INTESTINE: ADENOCARCINOMA, Dose [Carcinogen]: 0.02% IN DIET FOR FIRST 12 WK) was 9%, 13%, -44%, not significant, the “tumour outcome (control, treated, inhibition, significance)” value (Carcinogen: 2-ACETYLAMINOFLUORENE, 53-96-3, Dose [Inhibitor]: 0, 0.2% IN DRINKING WATER FOR FIRST 12 WK (STUDY DURATION: 30 WK), Strain/Sex: ACI/MALE, Target Tissue: Type of Lesion: LIVER: HEPATOCELLULAR ADENOMA, Dose [Carcinogen]: 0.02% IN DIET FOR FIRST 12 WK) was 100%, 35%, 65%, p<0.001 and the “tumour outcome (control, treated, inhibition, significance)” value (Carcinogen: 2-ACETYLAMINOFLUORENE, 53-96-3, Dose [Inhibitor]: 0, 0.2% IN DRINKING WATER FOR FIRST 12 WK (STUDY DURATION: 30 WK), Strain/Sex: ACI/MALE, Target Tissue: Type of Lesion: LIVER: HEPATOCELLULAR CARCINOMA, Dose [Carcinogen]: 0.02% IN DIET FOR FIRST 12 WK) was 44%, 5%, 89%, p<0.02. For the same molecule, the “tumour outcome (control, treated, inhibition, significance)” value (Carcinogen: 2-ACETYLAMINOFLUORENE, 53-96-3, Dose [Inhibitor]: 0, 0.2% IN DRINKING WATER FOR FIRST 12 WK (STUDY DURATION: 30 WK), Strain/Sex: ACI/MALE, Target Tissue: Type of Lesion: SMALL INTESTINE: ADENOCARCINOMA, Dose [Carcinogen]: 0.02% IN DIET FOR FIRST 12 WK) was 9%, 10%, -11%, not significant, the “tumour outcome (control, treated, inhibition, significance)” value (Carcinogen: 2-AMINO-1-METHYL-6-PHENYL-1H-IMIDAZO[4,5-B]PYRID INE, 105650-23-5, Dose [Inhibitor]: 0, 0.1% IN DRINKING WATER FOR 52 WK (STUDY DURATION: 52 WK), Strain/Sex: F344/FEMALE, Target Tissue: Type of Lesion: MAMMARY GLAND: FIBROADENOMA, Dose [Carcinogen]: 0.02% IN THE DIET FOR 52 WK, Promoter: NONE USED) was 2/20 (10%), 0/20 (0%), 100%, not significant and the “tumour outcome (control, treated, inhibition, significance)” value (Carcinogen: 2-AMINO-1-METHYL-6-PHENYL-1H-IMIDAZO[4,5-B]PYRIDINE, 105650-23-5, Dose [Inhibitor]: 0, 0.1% IN DRINKING WATER FOR 52 WK (STUDY DURATION: 52 WK), Strain/Sex: F344/FEMALE, Target Tissue: Type of Lesion: MAMMARY GLAND: ADENOCARCINOMA, Dose [Carcinogen]: 0.02% IN THE DIET FOR 52 WK, Promoter: NONE USED) was 8/20 (40%), 2/20 (10%), 75%, p< 0.05. For the same molecule, the “tumour outcome (control, treated, inhibition, significance)” value (Carcinogen: 2-AMINO-1-METHYL-6-PHENYLIMIDAZO[4,5-B]PYRIDINE [105650-23-5], Dose [Inhibitor]: 0.1% IN DRINKING WATER FOR 54 WK (STUDY DURATION: 54 WK), Strain/Sex: F344/DUCRJ/FEMALE, Target Tissue: Type of Lesion: COLON: ADENOMA OR ADENOCARCINOMA, Dose [Carcinogen]: 0.02% IN DIET FOR 54 WK (STUDY DURATION: 54 WK), Promoter: NONE) was 3/20 (15%), 15/20 (75%), -400%, p<0.01.
